In experiment [1] the test system is C32 human melanoma cells. As to the kind of experiment: cell viability in the C32 cell-based assay (Viability, C32 IC50). The settings on record: Homo sapiens, C32, C32 cells; concentration causing 50% cell death; values greater than 10 represent a lack of cell death; read-out: Viability, C32 IC50. The procedure, abridged:
(§1)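 Both lines undergo the phenotypic GM3 assay, and viability is recorded from that same cell-based run.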

Experiment [2] deals with GM3 expression on the cell surface, B16 mouse melanoma cells. As to the kind of experiment: cell based phenotypic assay, cell surface GM3 by antibody mediated immunofluorescence, B16 (GM3 B16 IC50). The note with it: Mus musculus, B16 mouse melanoma cells; 50% inhibition of GM3 expression on the cell surface; read-out: GM3 B16 IC50. The procedure, abridged: as §1
Experiment [3] concerns B16 mouse melanoma cells. The experiment in a line: cell viability in the B16 cell-based assay (Viability, B16 IC50). The settings on record: Mus musculus, B16, B16 cells; concentration causing 50% cell death; values greater than 10 represent a lack of cell death; read-out: Viability, B16 IC50. The procedure, abridged:
as §1

Experiment [4] deals with T1, glucosylceramide synthase (Homo sapiens, UniProt Q16739).
T1 construct: Microsomes were isolated from A375 human melanoma cells; endogenous in cells; host or cells: A375 human melanoma cells (microsomal fraction, 100,000 g pellet)
T1 sequence (Q16739 1-394): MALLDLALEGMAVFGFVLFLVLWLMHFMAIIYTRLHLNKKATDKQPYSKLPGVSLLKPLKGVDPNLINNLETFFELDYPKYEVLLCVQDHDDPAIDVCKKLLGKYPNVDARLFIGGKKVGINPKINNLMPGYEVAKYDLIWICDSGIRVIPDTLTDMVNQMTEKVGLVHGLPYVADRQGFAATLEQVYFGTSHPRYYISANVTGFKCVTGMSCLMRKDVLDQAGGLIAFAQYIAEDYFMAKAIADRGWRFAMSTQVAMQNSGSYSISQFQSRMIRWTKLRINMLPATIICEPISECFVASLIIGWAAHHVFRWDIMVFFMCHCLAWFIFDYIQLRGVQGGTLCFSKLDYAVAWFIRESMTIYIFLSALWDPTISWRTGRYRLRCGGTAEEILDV
As to the kind of experiment: microsomal assay measuring conversion of ceramide to glucosylceramide by HPLC (GCS IC50). Type of experiment: biochemical. The settings on record: concentration causing 50% inhibition of glucosylceramide synthase activity. Put shortly: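 Microsomal preparation assayed for glucosylceramide synthase by direct HPLC measurement of ceramide conversion to glucosylceramide. GCS IC50 is the compound concentration giving 50% inhibition of enzyme activity.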

Experiment [5] concerns GM3 expression on the cell surface, C32 human melanoma cells. The experiment in a line: cell based phenotypic assay, cell surface GM3 by antibody mediated immunofluorescence, C32 (GM3 C32 IC50). The note with it: Homo sapiens, C32 human melanoma cells; 50% inhibition of GM3 expression on the cell surface; read-out: GM3 C32 IC50. The procedure, abridged: as §1

Take `CC1(NC(=O)N2CCC(c3cccc(-c4ccccc4)c3)CC2)CCN2CCC1CC2` (stereo not drawn) [Example 52, 4-([1,1′-Biphenyl]-3-yl)-N-(4-methyl-1-azabicyclo[3.2.2]nonan-4-yl)piperidine-1-carboxamide]: the IC50 (usually the midpoint of a concentration-inhibition curve) in experiment [1] was determined as 8640 nM; in experiment [2], 1060 nM; in experiment [3], 7360 nM; in experiment [4], 503 nM; in experiment [5], 337 nM.

In the case of `CC1(NC(=O)N2CCC(c3ccc(-c4ccccc4)cc3)CC2)CCN2CCC1CC2` (stereo not drawn) [Example 53, 4-([1,1′-Biphenyl]-4-yl)-N-(4-methyl-1-azabicyclo[3.2.2]nonan-4-yl)piperidine-1-carboxamide], the IC50 came to 6290 nM in experiment [1]; 1240 nM in experiment [2]; 6740 nM in experiment [3]; 2210 nM in experiment [4]; 175 nM in experiment [5].

`CC1(NC(=O)C2CCN(c3ncc(F)c(-c4ccc(F)cc4)n3)CC2)CN2CCC1CC2` (stereo not drawn) [Example 54, 1-(5-Fluoro-4-(4-fluorophenyl)pyrimidin-2-yl)-N-(3-methylquinuclidin-3-yl)piperidine-4-carboxamide]: the IC50 turned out to be 8040 nM in experiment [1]; 106 nM in experiment [2]; 5130 nM in experiment [3]; 0.734 nM in experiment [4]; 0.0902 nM in experiment [5].

Turning to `CC1(NC(=O)C2CCN(c3ncc(F)c(-c4ccc(F)cc4)n3)CC2)CCN2CCC1CC2` (stereo not drawn) [Example 55, 1-(5-Fluoro-4-(4-fluorophenyl)pyrimidin-2-yl)-N-(4-methyl-1-azabicyclo[3.2.2]nonan-4-yl)piperidine-4-carboxamide], the IC50 in experiment [1] was 100 nM; in experiment [2], 47.5 nM; in experiment [3] it was 3740 nM; in experiment [4], 0.736 nM; in experiment [5], 0.0479 nM.

For `COCCOc1ccc(-c2nc(N3CCC(C(=O)NC4(C)CCN5CCC4CC5)CC3)ncc2F)cc1` (stereo not drawn) [Example 56, 1-(5-Fluoro-4-(4-(2-methoxyethoxy)phenyl)pyrimidin-2-yl)-N-(4-methyl-1-azabicyclo[3.2.2]nonan-4-yl)piperidine-4-carboxamide], the IC50 was 7420 nM in experiment [1]; 20.9 nM in experiment [2]; 6760 nM in experiment [3]; 4.63 nM in experiment [4]; 0.173 nM in experiment [5].

`COCCOCc1ccc(-c2nc(N3CCC(C(=O)NC4(C)CCN5CCC4CC5)CC3)ncc2F)cc1` (stereo not drawn) [Example 58, 1-(5-Fluoro-4-(4-((2-methoxyethoxy)methyl)phenyl)pyrimidin-2-yl)-N-(4-methyl-1-azabicyclo[3.2.2]nonan-4-yl)piperidine-4-carboxamide]: the IC50 is 1000 nM in experiment [1]; 40.5 nM in experiment [2]; at least 10000 nM in experiment [3]; 3.39 nM in experiment [4]; 0.17 nM in experiment [5].

Regarding `COCCOCc1ccc(-c2nc(N3CCC(C(=O)NC4(C)CN5CCC4CC5)CC3)ncc2F)cc1` (stereo not drawn) [Example 59, 1-(5-Fluoro-4-(4-((2-methoxyethoxy)methyl)phenyl)pyrimidin-2-yl)-N-(3-methylquinuclidin-3-yl)piperidine-4-carboxamide], the IC50 in experiment [1] was 464 nM; in experiment [2], 152 nM; in experiment [3], at least 10000 nM; in experiment [4], 9.18 nM; in experiment [5] it was 0.339 nM.

In the case of `COCc1ccc(-c2nc(N3CCC(C(=O)NC4(C)CCN5CCC4CC5)CC3)ncc2F)cc1` (stereo not drawn) [Example 60, 1-(5-Fluoro-4-(4-(methoxymethyl)phenyl)pyrimidin-2-yl)-N-(4-methyl-1-azabicyclo[3.2.2]nonan-4-yl)piperidine-4-carboxamide], the IC50 came to 46.4 nM in experiment [1]; 15.5 nM in experiment [2]; 3500 nM in experiment [3]; 1.68 nM in experiment [4]; 0.1 nM in experiment [5].

Take `COCc1ccc(-c2nc(N3CCC(C(=O)NC4(C)CN5CCC4CC5)CC3)ncc2F)cc1` (stereo not drawn) [Example 61, 1-(5-Fluoro-4-(4-(methoxymethyl)phenyl)pyrimidin-2-yl)-N-(3-methylquinuclidin-3-yl)piperidine-4-carboxamide]: the IC50 in experiment [1] is 46.4 nM; in experiment [2], 52.4 nM; in experiment [3], 8540 nM; in experiment [4], 1.41 nM; in experiment [5] it was 0.13 nM.

`COCCCOc1ccc(-c2nc(N3CCC(C(=O)NC4(C)CCN5CCC4CC5)CC3)ncc2F)cc1` (stereo not drawn) [Example 62, 1-(5-Fluoro-4-(4-(3-methoxypropoxy)phenyl)pyrimidin-2-yl)-N-(4-methyl-1-azabicyclo[3.2.2]nonan-4-yl)piperidine-4-carboxamide]: the IC50 was 100 nM in experiment [1]; 10.5 nM in experiment [2]; 2390 nM in experiment [3]; 0.931 nM in experiment [4]; 0.109 nM in experiment [5].

Take `COCCCOc1ccc(-c2nc(N3CCC(C(=O)NC4(C)CN5CCC4CC5)CC3)ncc2F)cc1` (stereo not drawn) [Example 63, 1-(5-Fluoro-4-(4-(3-methoxypropoxy)phenyl)pyrimidin-2-yl)-N-(3-methylquinuclidin-3-yl)piperidine-4-carboxamide]: the IC50 turned out to be 100 nM in experiment [1]; 40.8 nM in experiment [2]; 3520 nM in experiment [3]; 0.586 nM in experiment [4]; 0.0988 nM in experiment [5].

For `CC1(NC(=O)C2CCN(c3nccc(-c4ccc(F)c(F)c4)n3)CC2)CCN2CCC1CC2` (stereo not drawn) [Example 64, 1-(4-(3,4-Difluorophenyl)pyrimidin-2-yl)-N-(4-methyl-1-azabicyclo[3.2.2]nonan-4-yl)piperidine-4-carboxamide], the IC50 in experiment [1] is 5530 nM; in experiment [2], 32.9 nM; in experiment [3], 3420 nM; in experiment [4], 1.7 nM; in experiment [5], 0.062 nM.

For `CC1(NC(=O)C2CCN(c3nccc(-c4cc(F)cc(F)c4)n3)CC2)CCN2CCC1CC2` (stereo not drawn) [Example 65, 1-(4-(3,5-Difluorophenyl)pyrimidin-2-yl)-N-(4-methyl-1-azabicyclo[3.2.2]nonan-4-yl)piperidine-4-carboxamide], the IC50 in experiment [1] came out at 215 nM; in experiment [2], 56.1 nM; in experiment [3], 4140 nM; in experiment [4] it was 1.31 nM; in experiment [5] it was 0.0934 nM.

Take `COCCOc1ccc(-c2ccnc(N3CCC(C(=O)NC4(C)CCN5CCC4CC5)CC3)n2)cc1` (stereo not drawn) [Example 66, 1-(4-(4-(2-Methoxyethoxy)phenyl)pyrimidin-2-yl)-N-(4-methyl-1-azabicyclo[3.2.2]nonan-4-yl)piperidine-4-carboxamide]: the IC50 in experiment [1] was determined as 215 nM; in experiment [2] it was 69.3 nM; in experiment [3] it was 8200 nM; in experiment [4] it was 3.17 nM; in experiment [5], 0.329 nM.

Take `COCCCOc1ccc(-c2ccnc(N3CCC(C(=O)NC4(C)CCN5CCC4CC5)CC3)n2)cc1` (stereo not drawn) [Example 67, 1-(4-(4-(3-Methoxypropoxy)phenyl)pyrimidin-2-yl)-N-(4-methyl-1-azabicyclo[3.2.2]nonan-4-yl)piperidine-4-carboxamide]: the IC50 in experiment [1] is 1000 nM; in experiment [2], 7.24 nM; in experiment [3], 4950 nM; in experiment [4] it was 1.88 nM; in experiment [5] it was 0.114 nM.

For the compound `COCCOc1ccc(-c2cccc(N3CCC(C(=O)NC4(C)CCN5CCC4CC5)CC3)c2)cc1` (stereo not drawn) [Example 68, 1-(4′-(2-Methoxyethoxy)-[1,1′-biphenyl]-3-yl)-N-(4-methyl-1-azabicyclo[3.2.2]nonan-4-yl)piperidine-4-carboxamide], the IC50 turned out to be 3160 nM in experiment [1]; 132 nM in experiment [2]; 7120 nM in experiment [3]; 21.3 nM in experiment [4]; 3.53 nM in experiment [5].

For the compound `COCCOCc1ccc(-c2cccc(N3CCC(C(=O)NC4(C)CCN5CCC4CC5)CC3)c2)cc1` (stereo not drawn) [Example 69, 1-(4′-((2-Methoxyethoxy)methyl)-[1,1′-biphenyl]-3-yl)-N-(4-methyl-1-azabicyclo[3.2.2]nonan-4-yl)piperidine-4-carboxamide], the IC50 in experiment [1] was determined as 1000 nM; in experiment [2], 303 nM; in experiment [3] it was 4640 nM; in experiment [4], 36.2 nM; in experiment [5], 4.64 nM.

`COCc1ccc(-c2ccnc(N3CCC(C(=O)NC4(C)CCN5CCC4CC5)CC3)n2)cc1` (stereo not drawn) [Example 70, 1-(4-(4-(Methoxymethyl)phenyl)pyrimidin-2-yl)-N-(4-methyl-1-azabicyclo[3.2.2]nonan-4-yl)piperidine-4-carboxamide]: the IC50 in experiment [1] is 1000 nM; in experiment [2], 15.6 nM; in experiment [3], 1000 nM; in experiment [4], 3.96 nM; in experiment [5] it was 0.0905 nM.
